Reference: patent publication US4332794A, “6"-Deoxydibekacin, 4",6"-dideoxydibekacin and 1-N-aminoacyl derivatives thereof, and the production of these new compounds” (Zaidan Hojin Biseibutsu Kagaku Kenkyu Kai, priority 1979, dated 1982)
In brackets after ≈: the same amount, converted by molar mass. Where two headings read alike, the source gives them in different places.

Key:
Assay type in all cases: cell-based
[1] = tested on: Escherichia coli K-12 R 388; assay: MIC, serial dilution on nutrient agar; conditions: K12R388, 18 h
[2] = tested on: Pseudomonas aeruginosa PST1; assay: MIC, serial dilution on nutrient agar; conditions: PST1, 18 h
[3] = tested on: Corynebacterium bovis 1810; assay: MIC, serial dilution on nutrient agar
[4] = tested on: Escherichia coli JR66/W677; assay: MIC, serial dilution on nutrient agar; conditions: JR66/W677, 18 h
[5] = tested on: Staphylococcus epidermidis 109; assay: MIC, serial dilution on nutrient agar; conditions: Staphylococcus epidermidis, 109, 18 h
Escherichia coli NIHJ = assay: MIC, serial dilution on nutrient agar; conditions: 18 h
Serratia marcescens = assay: MIC, serial dilution on nutrient agar; conditions: 37° C., 18 hours
Experimental: (§1) The minimum inhibitory concentrations (mcg/ml) of 6"-deoxydibekacin (abbreviated as 6"-DDKB), 4",6"-dideoxydibekacin (abbreviated as 4",6"-DDKB), 1-N-(L-4-amino-2-hydroxybutyryl)-6"-deoxydibekacin (abbreviated as AHB-6"-DDKB) and 1-N-(L-4-amino-2-hydroxybutyryl)-4",6"-dideoxydibekacin (abbreviated as AHB-4",6"-DDKB) of this invention against various microorganisms were determined according to serial dilution method on a nutrient agar medium at 37° C., the estimation being made after 18 hours incubation. For comparison purpose, the minimum inhibitory concentrations of dibekacin (abbreviated as DKB) were also determined in the same manner as stated above.

Providencia 2991 = assay: MIC, serial dilution on nutrient agar; conditions: 37° C., 18 hours
Experimental: as §1

[6] = tested on: Pseudomonas aeruginosa 21-75; assay: MIC, serial dilution on nutrient agar; conditions: 2175, 37° C., 18 hours
Experimental: as §1

[7] = tested on: Escherichia coli K-12 C 600R/35; assay: MIC, serial dilution on nutrient agar; conditions: K12C600R/35, 37° C., 18 hours
Experimental: as §1

[8] = tested on: Escherichia coli K-12 ML 1630; assay: MIC, serial dilution on nutrient agar; conditions: K12ML1630, 37° C., 18 hours
Experimental: as §1

[9] = tested on: Klebsiella pneumoniae PCI 602; assay: MIC, serial dilution on nutrient agar; conditions: PCI602, 37° C., 18 hours
Experimental: as §1

Serratia SOU = assay: MIC, serial dilution on nutrient agar; conditions: 37° C., 18 hours
Experimental: as §1

[10] = tested on: Pseudomonas maltophilia GN907; assay: MIC, serial dilution on nutrient agar; conditions: Stenotrophomonas maltophilia, 37° C., 18 hours
Experimental: as §1

Shigella sonnei JS11746 = assay: MIC, serial dilution on nutrient agar; conditions: 37° C., 18 hours
Experimental: as §1

[11] = tested on: Staphylococcus aureus 209P; assay: MIC, serial dilution on nutrient agar; conditions: 37° C., 18 hours
Experimental: as §1

[12] = tested on: Escherichia coli K-12 J5B 11-2; assay: MIC, serial dilution on nutrient agar; conditions: K12J5B112, 37° C., 18 hours
Experimental: as §1

[13] = tested on: Escherichia coli K-12 ML 1629; assay: MIC, serial dilution on nutrient agar; conditions: K12ML1629, 37° C., 18 hours
Experimental: as §1

[14] = tested on: Pseudomonas aeruginosa GN315; assay: MIC, serial dilution on nutrient agar; conditions: 37° C., 18 hours
Experimental: as §1

Serratia 4 = assay: MIC, serial dilution on nutrient agar; conditions: 37° C., 18 hours
Experimental: as §1

Proteus vulgaris OX19 = assay: MIC, serial dilution on nutrient agar; conditions: 37° C., 18 hours
Experimental: as §1

[15] = tested on: Shigella flexneri 4b JS11811; assay: MIC, serial dilution on nutrient agar; conditions: 4BJS11811, 37° C., 18 hours
Experimental: as §1

[16] = tested on: Shigella dysenteriae JS11910; assay: MIC, serial dilution on nutrient agar; conditions: JS11910, 18 h
[17] = tested on: Pseudomonas aeruginosa K-Ps102; assay: MIC, serial dilution on nutrient agar; conditions: KPS102, nutrient agar, 37° C., 18 hours, read-out: MIC
[18] = tested on: Pseudomonas aeruginosa ROS134/PU21; assay: microbe, parasite or virus in culture; conditions: ROS134/PU21, 18 h
[19] = tested on: Bacillus cereus ATCC 10702; assay: MIC, serial dilution on nutrient agar; conditions: ATCC10702, nutrient agar, 37° C., 18 hours, read-out: MIC
[20] = tested on: Mycobacterium smegmatis ATCC 607; assay: MIC, serial dilution on nutrient agar; conditions: Mycolicibacterium smegmatis, ATCC607, 18 h
[21] = tested on: Pseudomonas aeruginosa H9; assay: MIC, serial dilution on nutrient agar
Providencia Pv 16 = assay: MIC, serial dilution on nutrient agar; conditions: PV16, 18 h
Escherichia coli JR255 = assay: microbe, parasite or virus in culture; conditions: JR255, 18 h
[22] = tested on: Pseudomonas aeruginosa A3; assay: MIC, serial dilution on nutrient agar; conditions: A3, 18 h
Escherichia coli W677 = assay: MIC, serial dilution on nutrient agar; conditions: W677, 18 h
Escherichia coli K-12 R5 = assay: microbe, parasite or virus in culture; conditions: K12R5, 18 h
[23] = tested on: Staphylococcus aureus Smith; assay: MIC, serial dilution on nutrient agar; conditions: 37° C., 18 hours
[24] = tested on: Escherichia coli K-12 LA 290 R64; assay: MIC, serial dilution on nutrient agar; conditions: K12LA290R64, 18 h
Escherichia coli K-12 = assay: MIC, serial dilution on nutrient agar; conditions: K12, 18 h
[25] = tested on: Pseudomonas aeruginosa No. 12; assay: MIC, serial dilution on nutrient agar; conditions: NO.12, nutrient agar, 37° C., 18 hours, read-out: MIC
Bacillus anthracis = assay: microbe, parasite or virus in culture; conditions: 18 h
Sarcina lutea PCI 1001 = assay: MIC, serial dilution on nutrient agar; conditions: Micrococcus luteus

SMILES | MIC [1] [µg/mL] | MIC [2] [µg/mL] | MIC [4] [µg/mL] | MIC [5] [µg/mL] | MIC (Escherichia coli NIHJ) [µg/mL] | MIC (Serratia marcescens) [µg/mL] | MIC (Providencia 2991) [µg/mL] | MIC [6] [µg/mL] | MIC [7] [µg/mL] | MIC [8] [µg/mL] | MIC [9] [µg/mL] | MIC (Serratia SOU) [µg/mL] | MIC [10] [µg/mL] | MIC (Shigella sonnei JS11746) [µg/mL] | MIC [11] [µg/mL] | MIC [12] [µg/mL] | MIC [13] [µg/mL] | MIC [14] [µg/mL] | MIC (Serratia 4) [µg/mL] | MIC (Proteus vulgaris OX19) [µg/mL] | further results
C[C@@H]1C[C@H](N)[C@@H](O)[C@@H](O[C@@H]2[C@@H](O)[C@H](O[C@H]3O[C@H](CN)CC[C@H]3N)[C@@H](N)C[C@H]2N)O1 [4",6"-DDKB, 4",6"-dideoxydibekacin] | 1.56 (≈ 3.72 µM) | > 100 | 100 (≈ 238 µM) | 3.13 (≈ 7.46 µM) | 1.56 (≈ 3.72 µM) | 100 (≈ 238 µM) | > 100 | > 100 | 50 (≈ 119 µM) | 3.13 (≈ 7.46 µM) | 0.78 (≈ 1.86 µM) | > 100 | > 100 | 3.13 (≈ 7.46 µM) | 0.39 (≈ 0.93 µM) | 3.13 (≈ 7.46 µM) | 3.13 (≈ 7.46 µM) | > 100 | 100 (≈ 238 µM) | 0.78 (≈ 1.86 µM) | MIC ([3]; Corynebacterium bovis, 1810, 18 h): 50 µg/mL (≈ 119 µM); MIC [15]: 3.13 µg/mL (≈ 7.46 µM); MIC [16]: 3.13 µg/mL (≈ 7.46 µM); MIC [17]: 25 µg/mL (≈ 59.6 µM); MIC [18]: > 100 µg/mL; MIC [19]: 6.25 µg/mL (≈ 14.9 µM); MIC [20]: 1.56 µg/mL (≈ 3.72 µM); MIC ([21]; H9, 18 h): 100 µg/mL (≈ 238 µM); MIC (Providencia Pv 16): > 100 µg/mL; MIC (Escherichia coli JR255): 100 µg/mL (≈ 238 µM); MIC [22]: 3.13 µg/mL (≈ 7.46 µM); MIC (Escherichia coli W677): 0.78 µg/mL (≈ 1.86 µM); MIC (Escherichia coli K-12 R5): > 100 µg/mL; MIC [23]: < 0.2 µg/mL; MIC [24]: 25 µg/mL (≈ 59.6 µM); MIC (Escherichia coli K-12): 1.56 µg/mL (≈ 3.72 µM); MIC [25]: 12.5 µg/mL (≈ 29.8 µM); MIC (Bacillus anthracis): < 0.2 µg/mL; MIC (Sarcina lutea PCI 1001; PCI1001, 18 h): 50 µg/mL (≈ 119 µM)
C[C@H]1O[C@H](O[C@@H]2[C@@H](O)[C@H](O[C@H]3O[C@H](CN)CC[C@H]3N)[C@@H](N)C[C@H]2N)[C@H](O)[C@@H](N)[C@@H]1O [6"-DDKB, 6"-deoxydibekacin] | 1.56 (≈ 3.58 µM) | > 100 | 100 (≈ 230 µM) | 1.56 (≈ 3.58 µM) | 1.56 (≈ 3.58 µM) | 100 (≈ 230 µM) | > 100 | > 100 | 3.13 (≈ 7.19 µM) | 3.13 (≈ 7.19 µM) | 1.56 (≈ 3.58 µM) | > 100 | > 100 | 3.13 (≈ 7.19 µM) | 0.78 (≈ 1.79 µM) | 1.56 (≈ 3.58 µM) | 1.56 (≈ 3.58 µM) | 100 (≈ 230 µM) | 100 (≈ 230 µM) | 0.39 (≈ 0.895 µM) | MIC ([3]; Corynebacterium bovis, 1810, nutrient agar, 37° C., 18 hours, read-out: MIC): 25 µg/mL (≈ 57.4 µM); MIC [15]: 3.13 µg/mL (≈ 7.19 µM); MIC [16]: 3.13 µg/mL (≈ 7.19 µM); MIC [17]: 6.25 µg/mL (≈ 14.4 µM); MIC [18]: > 100 µg/mL; MIC [19]: 6.25 µg/mL (≈ 14.4 µM); MIC [20]: 0.78 µg/mL (≈ 1.79 µM); MIC ([21]; H9, nutrient agar, 37° C., 18 hours, read-out: MIC): 12.5 µg/mL (≈ 28.7 µM); MIC (Providencia Pv 16): > 100 µg/mL; MIC (Escherichia coli JR255): > 100 µg/mL; MIC [22]: 1.56 µg/mL (≈ 3.58 µM); MIC (Escherichia coli W677): 1.56 µg/mL (≈ 3.58 µM); MIC (Escherichia coli K-12 R5): 100 µg/mL (≈ 230 µM); MIC [23]: < 0.2 µg/mL; MIC [24]: 25 µg/mL (≈ 57.4 µM); MIC (Escherichia coli K-12): 1.56 µg/mL (≈ 3.58 µM); MIC [25]: 6.25 µg/mL (≈ 14.4 µM); MIC (Bacillus anthracis): 0.39 µg/mL (≈ 0.895 µM); MIC (Sarcina lutea PCI 1001; PCI1001, nutrient agar, 37° C., 18 hours, read-out: MIC): 25 µg/mL (≈ 57.4 µM)
